Experimental data: patent US12448605B2, “Encapsulation and cardiac differentiation of hiPSCs in 3D PEG-fibrinogen hydrogels” (Auburn University, priority 2013, dated 2025)

Test system: spontaneously contracting 3D cultured CMs
Experiment: Calcium transient and spontaneous beating rate of dissociated, un-paced CMs in response to isoproterenol
Assay type: cell-based, human
Procedure: To immobilize cells for proper calcium transient acquisition, glass coverslips (21 mm, No. 1, Fisher Scientific) were coated with PDMS using a WS-400-6NPP spin coater (Laurell Technologies Corporation). Briefly, SLYGARD 184 silicone elastomer curing agent was mixed with SLYGARD 184 elastomer base (Dow Corning Corporation) at a ratio of 1:10, applied on the glass coverslips and evenly spin coated to obtain PDMS coated coverslips. These were dried at 60° C. for several hours, sterilized using 70% ethanol, and further dried under sterile conditions for at least 24 h. In order for successful single CM attachment, 1× fibronectin in ice cold ultrapure water was applied on PDMS coated coverslips and incubated for at least one hour at room temperature.
Day 14 2D monolayers and 3D tissues were dissociated using 0.25% trypsin (EDTA) at 37° C. for 5 and 8 min, respectively. Cells were singularized by pipetting, added to RPMI20 media49, and centrifuged for 5 min at 200 g. Singularized cells were resuspended in RPMI20+5 μM ROCK inhibitor and transferred onto fibronectin coated PDMS glass coverslips. Cells were incubated for 48 h to ensure uniform cell attachment. Media was then switched to RPMI/B27 and cells maintained for 3 to 5 days. CM calcium transient recordings were obtained using an IonOptix Myocyte Calcium and Contractility Recording System. Samples were incubated in 5 μM Fura-2AM dye (Molecular Probes) in 37° C. warm Tyrode's solution (1.8 mM CaCl2, 5 mM glucose, 5 mM HEPES, 1 mM MgCl2, 5.4 mM KCl, 135 mM NaCl, and 0.33 mM NaH2PO4, pH 7.4) for 30 mM CMs were paced at frequencies from 0.5 to 2.0 Hz (0.5 Hz increments) and stimulated at 30 V. Calcium transient duration at 50% and 80% time to baseline was recorded. In addition to responses to outside electrical stimuli, response to 0.5 μM isoproterenol was studied on un-paced CMs.

[1] = 0.5 μM isoproterenol, spontaneously contracting 3D cultured CMs, vs pre-isoproterenol, n=3, P<0.05

CC(C)NCC(O)c1ccc(O)c(O)c1 (stereo not shown) [isoproterenol]
calcium transient time to baseline 50% [1]: significantly shortened | calcium transient time to baseline 80% [1]: significantly shortened | spontaneous beating rate (post isoproterenol) (0.5 μM isoproterenol, un-paced day 14 3D cultured CMs, pre-isoproterenol 33 beats per min): 60 beats per min | spontaneous beating rate (change in words) (spontaneously contracting 3D cultured CMs, response to isoproterenol): increased
